The subject of experiment [1] is A-431. The experiment is described as follows: In vitro cytotoxicity against epidermoid carcinoma cell line. The experiment is classed as functional, cell-based. Particulars: Homo sapiens.
Experiment [2] deals with BC1 cell line. The experiment can be described thus: In vitro cytotoxicity against breast cancer cell line. The experiment is classed as functional, cell-based. Particulars: Homo sapiens.
For experiment [3], the system named is Colon carcinoma cell. The experiment can be described thus: In vitro cytotoxicity against colon cancer cell line. Particulars: Homo sapiens. The experiment is classed as functional, cell-based.
Experiment [4] deals with Fibrosarcoma cell line. The experiment can be described thus: In vitro cytotoxicity against fibrosarcoma cell line. In kind it is functional, cell-based. Particulars: Homo sapiens.
The test system of experiment [5] is KB. The experiment is described as follows: In vitro cytotoxicity against oral epidermoid carcinoma cell line. The experiment is classed as functional, cell-based. Particulars: Homo sapiens.
For experiment [6], the system named is P388. The experiment can be described thus: In vitro cytotoxicity against murine lymphoid neoplasm cell line. The experiment is classed as functional, cell-based. Particulars: Mus musculus.
Experiment [7] has as its system U373 MG. The experiment can be described thus: In vitro cytotoxicity against glioblastoma cell line. The experiment is classed as functional, cell-based, U-373MG ATCC. Particulars: Homo sapiens.
Experiment [8] concerns Lung cancer cell line. The experiment is described as follows: In vitro cytotoxicity against lung cancer cell line. In kind it is functional, cell-based. Particulars: Homo sapiens.
Experiment [9] has as its system KB. The experiment is described as follows: In vitro cytotoxicity against vinblastine resistant KB cell line. The experiment is classed as functional, cell-based. Particulars: Homo sapiens.
For experiment [10], the system named is HT-29. The experiment can be described thus: Compound was tested for cytotoxicity against colon adenocarcinoma. The experiment is classed as functional, cell-based, Homo sapiens.
Experiment [11] deals with SK-OV-3. The experiment is described as follows: Comparison of cytotoxicity of calycopterone and flavone with doxorubicin against ovarian adenocarcinoma. The experiment is classed as functional, cell-based, Homo sapiens.
The test system of experiment [12] is SK-VLB. The experiment can be described thus: Compound was tested for cytotoxicity against ovarian adenocarcinoma, multidrug resistant. The experiment is classed as functional, cell-based. Particulars: Homo sapiens.
The test system of experiment [13] is SK-OV-3. The experiment can be described thus: Compound was tested for cytotoxicity against ovarian adenocarcinoma. Particulars: Homo sapiens.
Experiment [14] concerns SK-VLB. The experiment is described as follows: Compound was tested for cytotoxicity against ovarian adenocarcinoma, multidrug resistant. Particulars: Homo sapiens.

Values after ≈ are worked out from the molar mass of the structure shown. Values joined by “and” are separate entries in the source; they are usually repeats but may differ in a detail not shown here. Identical values can stand only once.

As for `COC1=C(OC)[C@@]2(OC)c3c(OC)c(O)c4c(c3O[C@@]23O[C@@H](c2ccccc2)CC=C3C1=O)[C@@H](OC)C[C@H](c1ccccc1)O4`, the EC50 in [1] came out at 0.4 µg/mL (≈ 0.651 µM); in [2], 0.4 µg/mL (≈ 0.651 µM); in [3] it was 0.3 µg/mL (≈ 0.488 µM); in experiment [4], 0.4 µg/mL (≈ 0.651 µM); in experiment [5] it was 0.4 µg/mL (≈ 0.651 µM); in experiment [6], 0.2 µg/mL (≈ 0.325 µM). Further, the EC50 in experiment [7] stood at 0.8 µg/mL (≈ 1.3 µM); in [8], 0.7 µg/mL (≈ 1.14 µM).
`COC1=C(OC)[C@@]2(OC)c3c(O)c(OC)c4c(c3O[C@@]23O[C@@H](c2ccccc2)CC=C3C1=O)[C@@H](O)C[C@H](c1ccccc1)O4`: the EC50 in experiment [1] came out at 0.2 µg/mL (≈ 0.333 µM); in experiment [2], 1.4 µg/mL (≈ 2.33 µM); in [3], 0.3 µg/mL (≈ 0.499 µM); in [4], 0.8 µg/mL (≈ 1.33 µM); in [9], 8.6 µg/mL (≈ 14.3 µM); in [5] it was 1.2 µg/mL (≈ 2 µM). The EC50 in [6] is 0.42 µg/mL (≈ 0.699 µM); in experiment [7], 0.3 µg/mL (≈ 0.499 µM); in experiment [8] it was 1.6 µg/mL (≈ 2.66 µM).
With `COC1=C(OC)[C@@]2(OC)c3c(O)c(OC)c4c(c3O[C@@]23O[C@@H](c2ccccc2)CC=C3C1=O)[C@@H](OC)C[C@H](c1ccccc1)O4` [CALYCOPTERONE], the EC50 is 1 µg/mL (≈ 1.63 µM) in experiment [1]; 5.4 µg/mL (≈ 8.79 µM) in experiment [2]; 0.4 µg/mL (≈ 0.651 µM) in experiment [3]; 1.8 µg/mL (≈ 2.93 µM) in experiment [4]; 9.6 µg/mL (≈ 15.6 µM) in experiment [9]; 0.8 µg/mL (≈ 1.3 µM) in [5]. Further, the values for the EC50 in [6], in experiment [7] and in [8] were 0.78 µg/mL (≈ 1.27 µM), 0.1 µg/mL (≈ 0.163 µM) and 1.2 µg/mL (≈ 1.95 µM), respectively. The IC50 in experiment [10] (ht-29) is 240 nM and 930 nM; in experiment [11], 125 nM and 1000 nM; in [12], 1900 nM.
For the molecule `COc1cc(-c2oc3cc(OC)c(OC)c(O)c3c(=O)c2OC)ccc1O` [CHRYSOSPLENOL B], the EC50 was over 20 µg/mL in experiment [1]; over 20 µg/mL in [2]; over 20 µg/mL in experiment [3]; 4.2 µg/mL (≈ 11.2 µM) in [4]; 0.8 µg/mL (≈ 2.14 µM) in experiment [9]; over 20 µg/mL in experiment [5]. For the same molecule, the 50% effective concentration (EC50) in experiment [6], in experiment [7] and in [8] was over 20 µg/mL in each case. Further, the IC50 in experiment [10] (Homo sapiens, HT-29) was 14200 nM; in experiment [13] it was 79000 nM; in experiment [14] it was over 133000 nM.
On to `COc1cccc2c1C(=O)c1c(O)c3c(c(O)c1C2=O)C[C@@](O)(C(=O)CO)C[C@@H]3O[C@H]1C[C@H](N)[C@H](O)[C@H](C)O1` [DOXORUBICIN], for which the half-maximal inhibitory concentration (IC50) in [10] (Homo sapiens, HT-29) is 180 nM; in experiment [13], 43 nM; in experiment [14], over 10000 nM.

A word on the EC50: it is the concentration needed to bring the measured effect to its halfway point. As a reminder, the IC50 is the point on the concentration scale where inhibition reaches its midpoint. Read a high IC50 as lower potency.

Source of the values: ChEMBL document CHEMBL1127510, “Plant antitumor agents. 31. The calycopterones, a new class of biflavonoids with novel cytotoxicity in a diverse panel of human tumor cell lines” (J Med Chem, 1994).
